Among the test systems are NCI-H226 lung; ACHN renal; UO-31 renal; CCRF-CEM leukemia; SN12C renal; A498 renal; SF-539 CNS; CAKI-1 renal; TK-10 renal; HCC-2998 colon.
What all share (assay): DTP human tumour cell line panel, 48 h

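These data come from cells grown in 96-well plates and exposed to compound for 48 hours at five concentrations. Here, GI50 denotes the concentration required for 50% inhibition of growth. TGI: concentration producing complete growth inhibition.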

Consider `N#Cc1cccc(/C=N/N=C(\N)NO)c1`, for which the TGI in the assay with NCI-H226 lung, with ACHN renal, in the assay with UO-31 renal, with CCRF-CEM leukemia, in the assay on SN12C renal and with A498 renal was > 100 µM in each case. In addition, the TGI in the assay on SF-539 CNS, in the assay on CAKI-1 renal and in the assay on TK-10 renal was > 100 µM each time.

For `O=c1c(-c2ccccc2)coc2cc(OC/C(=N/O)c3ccccc3)ccc12`, the GI50 is 23.4 µM in the assay with NCI-H226 lung; 21.8 µM with ACHN renal; 18.6 µM with UO-31 renal; 4.22 µM with CCRF-CEM leukemia; 18 µM in the assay on SN12C renal; 16.5 µM with A498 renal. Besides, the figures for the GI50 in the assay with HCC-2998 colon, in the assay with SF-539 CNS and with TK-10 renal were 10.1 µM, 25.4 µM and 13.1 µM, respectively. Also, the TGI in the assay on NCI-H226 lung is > 100 µM; in the assay on ACHN renal, 43.5 µM; in the assay with UO-31 renal it was 76.5 µM; in the assay on CCRF-CEM leukemia, > 100 µM; with SN12C renal, 39.9 µM; in the assay on A498 renal it was 33.4 µM. The total growth inhibition concentration (TGI) with HCC-2998 colon came to 27.2 µM; in the assay on SF-539 CNS, 53.3 µM; in the assay on TK-10 renal, 38.4 µM.

Take `COc1ccc(C2ON(c3cccc(C)n3)CC=C2C)cc1` (centres undefined): the total growth inhibition concentration (TGI) with NCI-H226 lung, in the assay on ACHN renal, in the assay with UO-31 renal, in the assay with CCRF-CEM leukemia, in the assay with SN12C renal and in the assay with HCC-2998 colon was > 100 µM each time. Also, the concentration for total growth inhibition (TGI) in the assay with SF-539 CNS and in the assay with CAKI-1 renal was > 100 µM in each case.

With `NC(N)=NS(=O)(=O)c1ccc(NCCc2c3ccccc3nc3ccccc23)cc1`, the concentration for total growth inhibition (TGI) in the assay on NCI-H226 lung, in the assay on ACHN renal, with UO-31 renal, in the assay on CCRF-CEM leukemia, with SN12C renal and in the assay on HCC-2998 colon was > 100 µM throughout. For the same compound, the TGI with SF-539 CNS, in the assay with CAKI-1 renal and with TK-10 renal was > 100 µM in each case.

As for `CCN(CC)c1ccc(N=Nc2ccc(-c3nc4ccc[n+](C)c4o3)cc2)cc1`, the TGI in the assay on NCI-H226 lung amounted to 27.6 µM; in the assay on UO-31 renal, 25.4 µM; with CCRF-CEM leukemia, 19.8 µM; in the assay with SN12C renal, 45.5 µM; in the assay with A498 renal it was 35.9 µM; with SF-539 CNS, 20.3 µM. Besides, the TGI with CAKI-1 renal stood at 26.3 µM; in the assay on TK-10 renal it was 24.7 µM.

As for `COC(=O)CC[C@H](Cc1ccccc1)NC(=O)c1csc([C@@H](C[C@H](C(C)C)N(C)C(=O)[C@@H](NC(=O)[C@H]2CCCCN2C)C(C)C)OC(C)=O)n1`, the GI50 in the assay with ACHN renal is 0.013 µM; in the assay on UO-31 renal, 0.0165 µM; in the assay on CCRF-CEM leukemia it was 0.00289 µM; in the assay on SN12C renal, < 0.0025 µM; in the assay with A498 renal, 0.00406 µM; in the assay on HCC-2998 colon it was 0.00386 µM. The GI50 in the assay on TK-10 renal is > 25 µM. Also, the TGI was 21.4 µM in the assay on ACHN renal; > 25 µM with UO-31 renal; > 25 µM with CCRF-CEM leukemia; > 25 µM in the assay on SN12C renal; > 25 µM in the assay on HCC-2998 colon; > 25 µM with TK-10 renal.

`COC(=O)Nc1nc2ccc(Br)cc2[nH]1`: the TGI with NCI-H226 lung, in the assay with ACHN renal, in the assay with UO-31 renal, in the assay with CCRF-CEM leukemia, in the assay on SN12C renal and in the assay on A498 renal was > 100 µM throughout. The TGI in the assay on HCC-2998 colon is > 100 µM; in the assay on SF-539 CNS it was 57.3 µM; with TK-10 renal it was > 100 µM.

As to `Cc1cc2c(C)nn(Cc3ccc(Cl)cc3)c2c(C#N)c1C`, the TGI with NCI-H226 lung, with ACHN renal, in the assay with UO-31 renal, in the assay on CCRF-CEM leukemia, in the assay on SN12C renal and with HCC-2998 colon was > 100 µM in each case. Moreover, the TGI in the assay with SF-539 CNS and in the assay on TK-10 renal was > 100 µM throughout.

Turning to `COC(=O)/C=C/c1cc2c(cc1-c1c(C(=O)O)cc(OC)c(OC)c1OC)OCO2`, the concentration for total growth inhibition (TGI) with ACHN renal, in the assay on CCRF-CEM leukemia, in the assay with SN12C renal, in the assay with HCC-2998 colon, in the assay on SF-539 CNS and in the assay with CAKI-1 renal was > 10 µM each time. The TGI with TK-10 renal is > 10 µM.

Consider `O=C1C[C@@H]2/C(=C(O)\C=C\c3ccccc3)C(=O)C=C[C@@H]2O1`, for which the GI50 in the assay on NCI-H226 lung was 1.94 µM; in the assay on ACHN renal, 1.56 µM; with UO-31 renal, 0.878 µM; with CCRF-CEM leukemia, 0.447 µM; with SN12C renal, 2.15 µM; with A498 renal, 10.9 µM. For the same compound, the GI50 in the assay on SF-539 CNS was 2.3 µM; in the assay on CAKI-1 renal it was 2.35 µM; with TK-10 renal, 2.63 µM. For the same compound, the total growth inhibition concentration (TGI) worked out at 4.45 µM with NCI-H226 lung; 3.29 µM in the assay with ACHN renal; 2.2 µM in the assay on UO-31 renal; 2.89 µM in the assay on CCRF-CEM leukemia; 5.64 µM with SN12C renal; 23.1 µM in the assay with A498 renal. In addition, the TGI in the assay with SF-539 CNS was found to be 8.35 µM; with CAKI-1 renal it was 11.8 µM; in the assay with TK-10 renal, 7.59 µM.

As to `OCC#Cc1ccccc1C#CCCCCCC#Cc1ccccc1C#CCO`, the GI50 with NCI-H226 lung is 21.8 µM; in the assay with ACHN renal, 27.1 µM; in the assay on UO-31 renal, 17.1 µM; with CCRF-CEM leukemia it was 22.9 µM; with SN12C renal, 19.2 µM; in the assay with A498 renal, 24.1 µM. The GI50 in the assay on SF-539 CNS is 20 µM; with CAKI-1 renal it was 19.3 µM; in the assay with TK-10 renal it was 27.1 µM. In addition, the concentration for total growth inhibition (TGI) in the assay on NCI-H226 lung is 38.9 µM; in the assay on ACHN renal, 54 µM; in the assay with UO-31 renal, 33.8 µM; in the assay with CCRF-CEM leukemia, 49.6 µM; in the assay on SN12C renal, 33.6 µM; in the assay on A498 renal it was 44.8 µM. Moreover, the TGI stood at 36.3 µM in the assay on SF-539 CNS, 43.8 µM with CAKI-1 renal and 76.8 µM in the assay with TK-10 renal.

Take `O=c1c(O)c(-c2cc(O)c(O)c(O)c2)oc2cc(O)cc(O)c12`: the TGI is 57.1 µM in the assay with NCI-H226 lung; > 100 µM with ACHN renal; > 100 µM with UO-31 renal; > 100 µM in the assay on CCRF-CEM leukemia; […] in the assay with SN12C renal; > 100 µM in the assay on A498 renal. The TGI is > 100 µM in the assay on SF-539 CNS, 54 µM in the assay on CAKI-1 renal and > 100 µM in the assay with TK-10 renal.

The TGI is the concentration giving total growth inhibition. Higher therefore signals lower sensitivity of the cells. Broadly, the GI50 is the concentration that inhibits growth by half.

These data come from PubChem BioAssay (NCI).
